The source of these data is PMC3292467, “Comparison between ^68Ga-bombesin (^68Ga-BZH3) and the cRGD tetramer ^68Ga-RGD4 studies in an experimental nude rat model with a neuroendocrine pancreatic tumor cell line” (EJNMMI Research, 2011).

Entries after “also recorded” stand apart in the source; their conditions may differ. Read-outs that look alike come from different tables or passages of the source. Square brackets hold non-standard residues; d marks the D form. Peptide text beside a SMILES is read from it. * marks the point of attachment. DOTA = O=C(O)CN1CCN(CC(=O)O)CCN(CC(=O)*)CCN(CC(=O)O)CC1; 2Thi = N[C@@H](Cc1cccs1)C(=O)O; Nle = CCCC[C@H](N)C(=O)O; AEEA = NCCOCCOCC(=O)O; βAla = NCCC(=O)O

Series [1] relates to bombesin receptor subtype (BB3). Conditions: background statement; no reference given; cited from earlier work. The source says: (§1) Objectives Receptor scintigraphy gains more interest for diagnosis and treatment of tumors, in particular for neuroendocrine tumors (NET). We used a pan-Bombesin analog, the peptide DOTA-PEG2-[D-tyr^6, β-Ala^11, Thi^13, Nle^14] BN(6-14) amide (BZH3). BZH3 binds to at least three receptor subtypes: the BB1 (Neuromedin B), BB2 (Gastrin-releasing peptide, GRP), and BB3. Imaging of ανβ3 integrin expression playing an important role in angiogenesis and metastasis was accomplished with a ^68Ga-RGD tetramer. […] We have reported ^68Ga-labeled bombesin may be helpful for diagnostic reasons in a subgroup of patients ...

Series [2] has as its system gastrin-releasing peptide receptor (GRP-r, also known as BB2). Conditions: background statement; no reference given; cited from earlier work.
Description: as §1

Another series relates to BB1 (Neuromedin B). Particulars: background statement; no reference given; cited from earlier work.
Description: as §1

The next series has as its system gliomas. Conditions: compared with ^68Ga-DOTATOC in meningiomas, ref [47]; cited from earlier work. The source says:
Concerning the ^68Ga-BZH3 kinetics, k1 is a parameter that reflects the receptor binding and k3 is a parameter that reflects the internalization of the tracer.

Series [3] relates to AR42J tumor. Particulars: for VB (vessel density, fractional blood volume) / K1 (transport into the cell; associated with receptor binding) / RBP (receptor binding potential) / k2 (displacement from the receptor) / k3 (cellular internalisation) / k4 (externalization): AR42J tumor-bearing nude rats, n = 5 (BZH3), n = 4 (RGD4); for VB (vessel density, fractional blood volume): dynamic PET 60 min, i.v. Here is the method:
The AR42J cell line, derived from a rat exocrine pancreas neuroendocrine tumor, was used. Cells were obtained from the European Collection of Cell Cultures and were grown in RPMI 1640 medium supplemented with 2 mmol/L glutamine and 10% fetal calf serum. Adherent cells were dislodged with trypsin/ethylenediaminetetraacetic acid (0.02%: 0.05%, w/v). For PET-studies, 5 × 10^6 cells in 200 μl RPMI without supplements were inoculated subcutaneously in the right hind leg of Wistar rats.
The study included nine AR 42 J tumor-bearing nude rats. We grouped all rats according to PET tracers (B, ^68Ga-BZH3 and R, ^68Ga-RGD4), used in dynamic PET scanning, as noted in Table 1. Dynamic PET studies were performed for 60 min after the intravenous application of 10 to 30 MBq ^68Ga-RGD4 or 20 to 40 MBq ^68Ga-BZH3, using a 28-frame protocol (ten frames of 30 s, five frames of 60 s, five frames of 120 s, and eight frames of 300 s). Two animals can be examined in parallel per scanning by a homemade injector (Figure 2). A dedicated PET-CT system (Biograph™ mCT, 128 S/X, Siemens Co, Erlangen, Germany) with an axial field of view of 21.6 cm with TrueV, operated in a three-dimensional mode, was used for all animal studies. The system provides the simultaneous acquisition of 369 transverse slices with a slice thickness of 0.6 mm. The animals were positioned in the axial plane of the system to maintain the best resolution in the center of the system. All PET images were attenuation-corrected and an image matrix of 400 × 400 pixels was used for iterative image reconstruction (voxel size 1.565 × 1.565 × 0.6 mm) based on the syngo MI PET/CT 2009C software version. After the end of the dynamic series an ultrahigh resolution CT with 85 mA, 80 kV and a pitch of 0.85 cm was performed for attenuation correction of the acquired dynamic emission data. The reconstructed images were converted to SUV images based on the formula [24]: SUV = Tissue concentration (becquerel per gram)/[injected dose ([…]))/body weight (gram)]. The SUV 55 to 60 min post-injection was used for the assessment of both tracers. The SUV images were used for all further quantitative evaluations.
Dynamic PET data were evaluated using the software package PMOD (provided courtesy of PMOD Technologies Ltd., Zuerich, Switzerland). Areas with enhanced tracer uptake on transaxial, coronal, and sagittal images were evaluated visually. A volume of interest consists of several regions of interest over the target area. Irregular regions of interest were drawn manually. A detailed quantitative evaluation of tracer kinetics requires the use of compartmental modeling. A two-tissue-compartment model was used to evaluate the dynamic studies.
In animals, a partial volume correction must be applied to the data due to the small size of the input and tumor volumes of interest (VOIs). Herein, the recovery coefficient was 0.85 for a diameter of 8 mm and 0.32 for a diameter of 3 mm based on phantom measurements as well as the recent parameter settings used with the reconstruction software. For the input function the mean values of the VOI data obtained from the heart were used. We used a preprocessing tool, which allowed a fit of the input curve by a sum of up to three decaying exponentials. The learning-machine two-tissue-compartment model was used for the fitting and provided five parameters: the transport parameters for tracer into and out of the cell, K1 and k2, the parameters for phosphorylation and dephosphorylation of intracellular tracer, k3 and k4, and the fractional blood volume, also called vessel density (VB), which reflects the amount of blood in the VOI. Following compartment analysis, we calculated the global influx of tracer from the compartment data using the formula: influx = (K1 × k3)/(k2 + k3). […] The model parameters were accepted when K1 - k4 was less than 1 and VB exceeded 0. The unit for the rate constants K1 to k4 was 1/min.

Series [4] concerns gastrointestinal stromal tumors. Conditions: ref [15], cited from earlier work. The source says:
Bombesin and the two mammalian bombesin-like peptides, […] regulate many biologic response processes through activation of distinct receptor subtypes, including modulation of smooth muscle contraction, secretion of neuropeptides and hormones, as well as stimulation of cell growth. Activation of neuromedin B (BB1) receptors has been reported in various human cancers.

For series [5] the following is noted: 3D fused PET-CT images; male rat. Here is the method:
The study included nine AR 42 J tumor-bearing nude rats. We grouped all rats according to PET tracers (B, ^68Ga-BZH3 and R, ^68Ga-RGD4), used in dynamic PET scanning, as noted in Table 1. Dynamic PET studies were performed for 60 min after the intravenous application of 10 to 30 MBq ^68Ga-RGD4 or 20 to 40 MBq ^68Ga-BZH3, using a 28-frame protocol (ten frames of 30 s, five frames of 60 s, five frames of 120 s, and eight frames of 300 s). Two animals can be examined in parallel per scanning by a homemade injector (Figure 2). A dedicated PET-CT system (Biograph™ mCT, 128 S/X, Siemens Co, Erlangen, Germany) with an axial field of view of 21.6 cm with TrueV, operated in a three-dimensional mode, was used for all animal studies. The system provides the simultaneous acquisition of 369 transverse slices with a slice thickness of 0.6 mm. The animals were positioned in the axial plane of the system to maintain the best resolution in the center of the system. […] The SUV images were used for all further quantitative evaluations.
Dynamic PET data were evaluated using the software package PMOD (provided courtesy of PMOD Technologies Ltd., Zuerich, Switzerland). Areas with enhanced tracer uptake on transaxial, coronal, and sagittal images were evaluated visually. […] A detailed quantitative evaluation of tracer kinetics requires the use of compartmental modeling. […]

Series [6] in a line: Dynamic PET, tumor uptake (SUV) in AR42J tumor-bearing nude rats. The class given is in vivo, rat. Conditions: rat, in vivo, iv, i.v. 20 to 40 MBq (BZH3, n = 5), 10 to 30 MBq (RGD4, n = 4), nude rats, read-out: SUV (standardized uptake value) in tumor. The source says:
(§2) Irregular regions of interest were drawn manually.

Series [7] has as its system AR42J tumor. Described as above. The class given is in vivo, rat. Conditions: for SUV (standardized uptake value) in tumor: 55 to 60 min post-injection, i.v. 20 to 40 MBq (BZH3, n = 5), 10 to 30 MBq (RGD4, n = 4), nude rats.
Description: as §2

Where [8] appears, read: median, between tracers P 0.05*.

For Bombesin [reference compound], the “binding/affinity for BB3” value in series [1] was “high affinity”. For the same compound, the “binding/affinity for BB2” value in series [2] was “high affinity”. Besides, the “binding/affinity for BB1” value with BB1 (Neuromedin B) is “high affinity”.

As for “DOTA-PEG2-[D-Tyr^6 -β-Ala^11 -Thi^13 -Nle^14 ]BN(6-14) amide [BZH3, pan-Bombesin analog, unlabelled precursor]”, in [1], the “binding/affinity for BB3” value is recorded as “binds”. Moreover, in series [2], the “binding/affinity for BB2” value is “binds”. In addition, the “binding/affinity for BB1” value in the series on BB1 (Neuromedin B) is reported as “binds”.

Turning to `CCCC[C@H](NC(=O)[C@H](Cc1cccs1)NC(=O)[C@H](Cc1c[nH]cn1)NC(=O)CCNC(=O)[C@@H](NC(=O)[C@H](C)NC(=O)[C@H](Cc1c[nH]c2ccccc12)NC(=O)[C@H](CCC(N)=O)NC(=O)[C@@H](Cc1ccc(O)cc1)NC(=O)COCCOCCNC(=O)COCCOCCNC(=O)CN1CCN(CC(=O)O)CCN(CC(=O)O)CCN(CC(=O)O)CC1)C(C)C)C(N)=O` [^68Ga-BZH3, DOTA-PEG2-[D-Tyr^6 -β-Ala^11 -Thi^13 -Nle^14]BN(6-14) amide, metal not drawn] ({DOTA-AEEA-AEEA}-[dY]QWAV[βAla]H[2Thi][Nle]-NH2), in the series on gliomas, the “internalization” value is “higher internalization”. The “receptor binding” value in the series on gliomas is “lower receptor binding”. Further, the “FD, VB, K1 and RBP compared between tracers” value with AR42J tumor [3] (^68Ga-BZH3 vs ^68Ga-RGD tetramer) is “generally higher than the corresponding values for the ^68Ga-RGD tetramer”. The “VB (vessel density, fractional blood volume)” value in the series on AR42J tumor [3] (maximum) is on record as 0.1646; with AR42J tumor [3] (mean), 0.1037; in the series on AR42J tumor [3] (setting [8]) it was 0.0903; in the series with AR42J tumor [3] (minimum), 0.0603. The “K1 (transport into the cell; associated with receptor binding)” value with AR42J tumor [3] (maximum) was determined as 0.4862 min⁻¹; in the series with AR42J tumor [3] (mean), 0.3717 min⁻¹; with AR42J tumor [3] (setting [8]), 0.3506 min⁻¹; in the series with AR42J tumor [3] (minimum), 0.3055 min⁻¹. For the same compound, the “RBP (receptor binding potential)” value amounted to 0.1202 with AR42J tumor [3] (maximum); 0.0765 in the series with AR42J tumor [3] (mean); 0.0607 in the series on AR42J tumor [3] (median, between tracers P 0.0275*); 0.0506 with AR42J tumor [3] (minimum). The “k2 (displacement from the receptor)” value was determined as 0.6103 min⁻¹ in the series on AR42J tumor [3] (maximum); 0.4808 min⁻¹ in the series on AR42J tumor [3] (mean); 0.5216 min⁻¹ in the series with AR42J tumor [3] (median, between tracers P 0.4624); 0.2768 min⁻¹ in the series on AR42J tumor [3] (minimum). For the same compound, the “k3 (cellular internalisation)” value in the series on AR42J tumor [3] (maximum) was determined as 0.2005 min⁻¹; in the series with AR42J tumor [3] (mean), 0.1235 min⁻¹; with AR42J tumor [3] (median, between tracers P 0.8065), 0.1177 min⁻¹; with AR42J tumor [3] (minimum), 0.0580 min⁻¹. Further, the “k4 (externalization)” value with AR42J tumor [3] (maximum) came out at 0.1746 min⁻¹; in the series with AR42J tumor [3] (mean) it was 0.0986 min⁻¹; with AR42J tumor [3] (setting [8]), 0.1005 min⁻¹; in the series with AR42J tumor [3] (minimum) it was 0.0493 min⁻¹. Also, the “uptake compared with ^18F-FDG” value in series [4] was “lower than ^18F-FDG”. The “uptake in gastrointestinal stromal tumors” value in [4] (subgroup of patients) is “enhanced ^68Ga-BZH3 uptake in a subgroup of patients with gastrointestinal stromal tumors”. Moreover, the “tracer uptake in other sites” value in series [5] was “liver, kidney, urinary bladder, and testicles”. Moreover, the SUV in [6] (mean, 55 to 60 min post-injection) is 1.08 SUV; in [6] (median, 55 (56) to 60 min post-injection, between tracers P 0.8065), 1.19 SUV. For the same compound, the “tumor visualisation” value in the series on AR42J tumor [7] (3D fused PET-CT image, tumor in lower leg) was “clearly showed enhanced ^68Ga-BZH3 uptake in the tumor area in the lower leg”. Further, the “tumor uptake compared with the other tracer” value in the series on AR42J tumor [7] (^68Ga-BZH3 vs ^68Ga-RGD4, AR42J tumor-bearing nude rats) is reported as “generally higher than ^68Ga-RGD4 uptake; also recorded: higher than that of ^68Ga-RGD4”. The “SUV (standardized uptake value) in tumor” value in the series on AR42J tumor [7] (maximum) came to 1.2884; in the series with AR42J tumor [7] (minimum) it was 0.8628.
